Test results taken from US20250134889A1, “TARGETING IRE1 KINASE AND FMRP FOR PROPHYLAXIS, MANAGEMENT AND TREATMENT OF ATHEROSCLEROSIS” (CEDARS-SINAI MEDICAL CENTER, priority 2022, published 2025).

Tested on: atherosclerosis in Apoe-/- mice
Assay: Atherosclerosis in Apoe-/- mice fed WD
Format: in vivo, mouse
Experimental: FIGS. 6A-6J depict that IRE1 kinase inhibition alleviates atherosclerosis. (Data are mean±SEM; Mann Whitney U test. * P≤0.05, ** P≤0.01, *** P≤0.001.) • 6A. Atherosclerosis experiment design in Apoe^−/− mice were fed with WD (12 weeks) and injected with vehicle (DMSO) or AMG-18 (30 mg/kg) once a day in the last 4 weeks of WD. • 6B. Lesion area calculated from en face aorta, stained with ORO (n=5; Scale bar=5 mm). • 6C. Total plaque area was calculated from H&E-stained aortic root sections (n=5; Scale bar=300 μm). • 6D. Foam cell area was calculated from ORO-stained aortic root sections (n=5; Scale bar=300 μm). • 6E. Necrotic area was calculated from H&E-stained aortic root sections (n=5; Scale bar=100 μm). • 6F. Atherosclerosis experiment design in Apoe^−/− mice were fed with WD (12 weeks) and injected with vehicle (DMSO) or AMG-18 (30 mg/kg) twice a day in the last 4 weeks of WD. • 6G. Lesion area calculated from en face aorta, stained with ORO (n=6; Scale bar=5 mm). • 6H. Total plaque area was calculated from H&E-stained aortic root sections (n=5; Scale bar=300 μm). • 6I. Foam cell area was calculated from ORO-stained aortic root sections (n=5; Scale bar=300 μm). • 6J. Necrotic area was calculated from H&E-stained aortic root sections (n=5; Scale bar=100 μm).
FIGS. 6K-6T depict: (Data are mean±SEM; Mann Whitney U test. * P≤0.05, ** P≤0.01, *** P≤0.001.) • 6K. The ratio of mouse weight at the beginning of the experiment over the weight at the end of the experiment in FIG. 6A (n=5). • 6L-6N. Plasma measurements for (6L) glucose (n=5) and (6M) cholesterol (n=5) from mice in FIG. 6A. (6N) Abundance of B cells, T cells and monocytes in the peripheral blood as % of total CD45+ cells from the vehicle (DMSO) or AMG-18 (30 mg/kg) once a day injected mice in FIG. 6A (n=5). • 6O. Protein lysates of liver from mice in FIG. 6A. Proteins were analyzed by western blotting using specific antibodies for pIRE1 and β-Actin (n=5). • 6P. The ratio of mouse weight at the beginning of the experiment over the weight at the end of the experiment in FIG. 6F (n=6). • 6Q-6R. Plasma measurements for (6Q) glucose (n=6) and (6R) cholesterol (n=6) from FIG. 6F. • 6S-6T. Protein lysates of (6S) thioglycolate-elicited PM and (6T) liver from mice in FIG. 6F. Proteins were analyzed by western blotting using specific antibodies for pIRE1 and β-Actin (n=6).
Mice studies and treatments: C57BL/6 (WT, Fmr1^+/+), Fmr1^−/− and Apolipoprotein E-deficient (Apoe^−/−) mice were purchased from Jackson Laboratory. IRE1 conditional knock out (Ire1α^flox/flox) mice were a kind gift from Dr. Takao Iwawaki (Kanazawa Medical University, Japan) and characterized before (Iwawaki et al, 2009). […] Fmr1 conditional knock out (Fmr1^flox/flox) mice were a kind gift from dr. David Nelson. Fmr1^flox/flox mice were inter-crossed with LysM^cre mice purchased from Jackson Lab (004781) to obtain myeloid Fmr1-deficient (myFmr1^−/−) mice. Starting at 8 weeks of age, Fmr1^−/−, Fmr1^−/−, myFmr1/or myFmr1^−/− mice were injected with 1×10^10 AAV_PCSK9 (AAV8-D377Y-mPCSK9, Vector BiolabsAAV-268246) via tail vein, then fed with normal chow or high cholesterol/high fat atherosclerotic mouse diet from Envigo (TD.88137) for 6 to 16 weeks. Apoe^−/− mice were fed with WD (12 weeks) and intraperitoneally injected with vehicle (DMSO) or AMG-18 (30 mg/kg) once or twice a day in the last 4 weeks of WD. C57BL/6 were injected with Tunicamycin (TM, 1 mg/kg) and with AMG-18 (30 mg/kg) or vehicle (DMSO) in 20% vol/vol Cremophor EL saline solution. 8 hours later peritoneal macrophages were isolated by thioglycolate elicitation for further analysis. Mice were kept under specific pathogen-free conditions with food and water ad libititum. Both female and male mice were used for experiments. […]

[1] = 30 mg/kg once daily, last 4 weeks of 12 weeks WD
[2] = 30 mg/kg twice daily, last 4 weeks of 12 weeks WD

number of circulating immune cells [1]: no significant differences
Structure (SMILES): Cc1ccc2c(NS(=O)(=O)c3ccccc3Cl)cccc2c1Oc1ncccc1-c1ccnc(N[C@H]2CCCNC2)n1 [AMG-18]
aortic root lesion area [1]: not different
atherosclerotic lesions in en face aorta preparations [1]: decrease
body weight [1]: no significant differences
foam cell area [1]: significantly decreased
necrotic core area [1]: significantly decreased
IRE1 autophosphorylation (target engagement) (30 mg/kg once daily, liver lysates): reduced
aortic root lesion area [2]: did not alter
atherosclerotic lesions in en face aorta preparations [2]: significant decrease
body weight ratio [2]: decrease
foam cell area [2]: significantly decreased
necrotic core area [2]: significantly decreased
IRE1 autophosphorylation (target engagement) (30 mg/kg twice daily, PM and liver lysates): reduced
